Like-named read-outs stand apart in the source and are kept apart here.
Assays:
[1] = Quenching of acridine orange fluorescence on incorporation into liposomes; assay type: physicochemical; conditions: liposomes with external ammonium sulfate removed
Experimental: In order to further substantiate the existence of the ammonium gradient, the same experiment as described above was repeated with the other compounds such as acridine orange, a cytotoxic drug acridine orange is an amphiphatic weak base (pK=9.25), which has the advantage of being fluorescent. Instead of trapping pyranine inside the ammonium sulfate liposomes, liposomes were added to a solution containing acridine orange. The quenching of the resulting solution was monitored following partitioning into the aqueous phase of the liposome, using the experimental designs described in Example 5 and illustrated in FIG. 2.
Inset graph is an example of one of the experiments. Percentage of fluorescence intensity (F.I.) of acridine orange was monitored continuously and is shown here as (a). At the specified time (b) liposomes were added and the quenching was followed. At steady state, 5 um of nigericin was added, shown here as (c) and the extent of the release of quenching was used to calculate the ammonium sulfate gradient dependent fluorescence intensity. The details of the experiment are described in Example 5.
1 umol of acridine orange was added to a solution containing different proportions of potassium chloride and ammonium sulfate. The solution was designed to get different outside-inside gradients of ammonium sulfate when the liposomes are added. […] The recovery of fluorescence was monitored. […]

[2] = cited from earlier work
[3] = Loading of daunorubicin into ammonium sulfate liposomes
Experimental: After separation of untrapped ammonium sulfate by Sephadex G- 50, 1 ml of the liposome dispersion was mixed with 10 mg of daunorubicin dissolved in 1 ml of 50° C. and at specified time intervals aliquots were taken.

[4] = sodium/potassium gradient with valinomycin; cited from earlier work
[5] = Self-quenching of doxorubicin fluorescence; assay type: physicochemical
Experimental: The measurements were carried on a Perkin-Elmer MPF-44 spectrofluorometer, using excitation/emission wavelengths of 470 nm and 590 nm respectively. […] This was calculated from the difference between the fluorescence of the liposomes prepared according to Examples 1-4, and the fluorescence of the same mixture after diluting it 10 times with isopropanol containing 10% of 0.75% HCI. […] A correction for the difference in fluorescence of doxorubicin in water and the acidified isopropanol solution, deduced from measurements of the fluorescence of "free" drug in the two solutions, was introduced. The small amount of unquenched doxorubicin is probably due to some free-drug that leaked out of the vesicles.

[6] = Biochemistry, 21:3927-3932; cited from earlier work
[7] = Loading of doxorubicin into ammonium sulfate liposomes (NH4+ gradient), Dowex removal of free drug; assay type: physicochemical; conditions: biphasic, FIG. 3
Experimental: Two preparations of liposomes were used, one composed of EPC and cholesterol in molar ratio of 2:1; and second of DPPC and cholesterol in molar ratio 2:1.
The loading was started after removal of external untrapped ammonium sulfate by Sephadex G-50 gel exclusion chromatography.
Dowex binds Desferal and therefore the latter was added to final concentration of 0.5 mM immediately after the removal of the free drug by Dowex.
In order to determine the concentration of a loaded drug inside liposomes, the internal aqueous osmotic volume of the vesicles was measured. This was done by the entrapment of the non-measurable radioactive tracer ^3 H inulin. The comparison of the radioactivity per mole phospholipids before and after removal of the untrapped inulin was used to determine trapped volume using a procedure described in individual examples.
In all cases the gradient was obtained by gel exclusion chromatography of the liposomes after ammonium sulfate loading.
The incubation was shorter for certain types of kinetic experiments. At the end of incubation period, the mixture was passed through a Dowex 50 WX-4 (Serva) column to adsorb the free, unincorporated drug. […] A column containing 1-2 g dry weight of the resin was sufficient to adsorb all unincorporated drug. […] EPC was used for a standard curve.
The mixture was incubated at room temperature for approximately 24 hours. […]

[8] = around 24 hours; cited from earlier work
[9] = Source text: For this, ammonium carbonate (0.12M) was placed in a beaker. The ultrasound probe was attached to the beaker.

**Q.** For `CN(C)c1ccc2cc3ccc(N(C)C)cc3nc2c1` [Acridine orange], which “Quenching of acridine orange fluorescence” value [1] is on record?
**A.** The value was 96.5%.

**Q.** And the pK [2]?
**A.** Its pK is 9.25.

**Q.** With `COc1cccc2c1C(=O)c1c(O)c3c(c(O)c1C2=O)C[C@@](O)(C(C)=O)C[C@@H]3O[C@H]1C[C@H](N)[C@H](O)[C@H](C)O1` [Daunorubicin] as the compound, how does the “Rate of incorporation compared with doxorubicin” value [3] read?
**A.** Its value is “higher than that of doxorubicin”.

**Q.** What about the “Time to completion of incorporation” value [3] of the same compound?
**A.** The value was “less than one hour”.

**Q.** Which Loading [4] does the source give for `CCCCOc1cc(C(=O)NCCN(CC)CC)c2ccccc2n1` [Dibucaine] here?
**A.** Its Loading is “up to 52%”.

**Q.** Which “Concentration above which fluorescence is quenched” value ([5]; in saline) does the source give for `COc1cccc2c1C(=O)c1c(O)c3c(c(O)c1C2=O)C[C@@](O)(C(=O)CO)C[C@@H]3O[C@H]1C[C@H](N)[C@H](O)[C@H](C)O1` [Doxorubicin] here?
**A.** Its value is “higher than 10^-6 M”.

**Q.** What about the Quenching ([5]; in solution, concentration 1.7.10^-4, corrected for inner filter effect) of the same compound?
**A.** The Quenching was 33%.

**Q.** And the Quenching ([5]; in solution, concentration 3.4.10^-5, corrected for inner filter effect)?
**A.** Its Quenching is 16%.

**Q.** And the Quenching ([5]; in solution, concentration 6.9.10^-5, corrected for inner filter effect)?
**A.** Its Quenching is 25%.

**Q.** What about the Quenching ([5]; inside the liposomes) of the same compound?
**A.** The Quenching was about 100%.

**Q.** What about the “Concentration above which dimers and aggregates form” value [6] of the same compound?
**A.** The value was “higher than 1 um”.

**Q.** What about the “Duration of slower phase of loading” value [7] of the same compound?
**A.** The value was “about 24 hours”.

**Q.** What about the Leakage from liposomes [8] of the same compound?
**A.** Its Leakage from liposomes is “substantial leakage”.

**Q.** For `N.N.O=C(O)O` [ammonium carbonate], which Ultrasound signal ([9]; HCl added to pH 4.0) is on record?
**A.** The Ultrasound signal was “large signal”.

**Q.** What about the Ultrasound signal ([9]; before acidification, 0.12M) of the same compound?
**A.** Its Ultrasound signal is “No signal was observed”.
